Data taken from the supplement of paper PMC11451515.

Test system: SEM cells
Assay: cell viability relative to DMSO control; higher = less cytotoxic
Details: 48 h
Outline: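 Viability is expressed as a percentage of DMSO wells within each plate, and cell-free wells serve as background. Seeding densities in the 1536-well plates (5 μl) were 500 cells/well for NOMO1 or SEM leukemia cells and 1000 cells/well for P12-Ichikawa. Each line was adapted for at least four passages in each medium. Library compounds in DMSO were pin-dosed at 47 μM to 0.79 nM (11 points, threefold), and CellTiter-Glo One luminescence was read after 48 h at 37°C.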

[1] = HPLM + 10% dialyzed FBS, 0.000781 µM
[2] = HPLM + 10% dialyzed FBS, 0.00234 µM
[3] = HPLM + 10% dialyzed FBS, 0.00702 µM
[4] = HPLM + 10% dialyzed FBS, 0.0211 µM
[5] = HPLM + 10% dialyzed FBS, 0.0632 µM
[6] = HPLM + 10% dialyzed FBS, 0.19 µM
[7] = HPLM + 10% dialyzed FBS, 0.569 µM
[8] = HPLM + 10% dialyzed FBS, 1.71 µM
[9] = HPLM + 10% dialyzed FBS, 5.12 µM
[10] = HPLM + 10% dialyzed FBS, 15.4 µM
[11] = HPLM + 10% dialyzed FBS, 46.1 µM
[12] = RPMI 5 mM glucose + 10% FBS, 0.000781 µM
[13] = RPMI 5 mM glucose + 10% FBS, 0.00234 µM
[14] = RPMI 5 mM glucose + 10% FBS, 0.00702 µM
[15] = RPMI 5 mM glucose + 10% FBS, 0.0211 µM
[16] = RPMI 5 mM glucose + 10% FBS, 0.0632 µM
[17] = RPMI 5 mM glucose + 10% FBS, 0.19 µM
[18] = RPMI 5 mM glucose + 10% FBS, 0.569 µM
[19] = RPMI 5 mM glucose + 10% FBS, 1.71 µM
[20] = RPMI 5 mM glucose + 10% FBS, 5.12 µM
[21] = RPMI 5 mM glucose + 10% FBS, 15.4 µM
[22] = RPMI 5 mM glucose + 10% FBS, 46.1 µM
[23] = RPMI 5 mM glucose + 10% dialyzed FBS, 0.000781 µM
[24] = RPMI 5 mM glucose + 10% dialyzed FBS, 0.00234 µM
[25] = RPMI 5 mM glucose + 10% dialyzed FBS, 0.00702 µM
[26] = RPMI 5 mM glucose + 10% dialyzed FBS, 0.0211 µM
[27] = RPMI 5 mM glucose + 10% dialyzed FBS, 0.0632 µM
[28] = RPMI 5 mM glucose + 10% dialyzed FBS, 0.19 µM
[29] = RPMI 5 mM glucose + 10% dialyzed FBS, 0.569 µM
[30] = RPMI 5 mM glucose + 10% dialyzed FBS, 1.71 µM
[31] = RPMI 5 mM glucose + 10% dialyzed FBS, 5.12 µM
[32] = RPMI 5 mM glucose + 10% dialyzed FBS, 15.4 µM
[33] = RPMI 5 mM glucose + 10% dialyzed FBS, 46.1 µM

For ClC1=C(N\C2=N\CCN2)C3=NSN=C3C=C1, the cell viability [1] was 77.6%, the cell viability [2] was 91.6% and the cell viability [3] was 107%. It also gave a cell viability [4] of 69.7%, a cell viability [5] of 97.8% and a cell viability [6] of 105%. For the same compound, the cell viability [7] was 102%, the cell viability [8] was 111% and the cell viability [9] was 115%. The cell viability [10] was 116%, the cell viability [11] was 113% and the cell viability [12] was 93.7%. The cell viability [13] was 111%, the cell viability [14] was 115% and the cell viability [15] was 74.6%. For the same compound, the cell viability [16] was 121%, the cell viability [17] was 114% and the cell viability [18] was 114%. The cell viability [19] was 109%, the cell viability [20] was 117% and the cell viability [21] was 126%. It also gave a cell viability [22] of 126%, a cell viability [23] of 94.2% and a cell viability [24] of 105%. The cell viability [25] was 110%, the cell viability [26] was 69.1% and the cell viability [27] was 120%. It also gave a cell viability [28] of 122%, a cell viability [29] of 129% and a cell viability [30] of 121%. The cell viability [31] was 118%, the cell viability [32] was 137% and the cell viability [33] was 137%.
Compound CC(C)(C)C(=O)Oc1ccc2c(c1)nc(NC(=O)c1cccc([N+](=O)[O-])c1)n2CCCO has a cell viability [1] of 107%, a cell viability [2] of 122% and a cell viability [3] of 118%. The cell viability [4] was 119%, the cell viability [5] was 110% and the cell viability [6] was 120%. The cell viability [7] was 110%, the cell viability [8] was 104% and the cell viability [9] was 102%. The cell viability [10] was 88.5%, the cell viability [11] was 93.2% and the cell viability [12] was 130%. The cell viability [13] was 120%, the cell viability [14] was 118% and the cell viability [15] was 112%. It also gave a cell viability [16] of 117%, a cell viability [17] of 126% and a cell viability [18] of 114%. The cell viability [19] was 95.7%, the cell viability [20] was 97.5% and the cell viability [21] was 105%. It also gave a cell viability [22] of 118%, a cell viability [23] of 121% and a cell viability [24] of 138%. It also gave a cell viability [25] of 122%, a cell viability [26] of 116% and a cell viability [27] of 108%. The cell viability [28] was 121%, the cell viability [29] was 101% and the cell viability [30] was 81.1%. It also gave a cell viability [31] of 107%, a cell viability [32] of 106% and a cell viability [33] of 128%.
With C[C@H](NC(=O)/C(C#N)=C/c1cccc(Br)n1)c1ccccc1 the cell viability [1] was 89.8%, the cell viability [2] was 102% and the cell viability [3] was 98.7%. For the same compound, the cell viability [4] was 109%, the cell viability [5] was 118% and the cell viability [6] was 112%. It also gave a cell viability [7] of 103%, a cell viability [8] of 40.7% and a cell viability [9] of 8.01%. The cell viability [10] was 6.81%, the cell viability [11] was 6.6% and the cell viability [12] was 91.1%. It also gave a cell viability [13] of 98.2%, a cell viability [14] of 102% and a cell viability [15] of 107%. The cell viability [16] was 91.9%, the cell viability [17] was 97.6% and the cell viability [18] was 93.2%. The cell viability [19] was 13%, the cell viability [20] was 7.6% and the cell viability [21] was 6.42%. The cell viability [22] was 6.63%, the cell viability [23] was 74.5% and the cell viability [24] was 116%. For the same compound, the cell viability [25] was 102%, the cell viability [26] was 122% and the cell viability [27] was 104%. For the same compound, the cell viability [28] was 116%, the cell viability [29] was 108% and the cell viability [30] was 38.2%. It also gave a cell viability [31] of 8.38%, a cell viability [32] of 7.55% and a cell viability [33] of 7.44%.
CN(c1ncccc1CNc1nc(Nc2ccc3c(c2)CC(=O)N3)ncc1C(F)(F)F)[S+](C)(=O)[O-] showed a cell viability [12] of 120%, a cell viability [13] of 122% and a cell viability [14] of 140%. For the same compound, the cell viability [15] was 129%, the cell viability [16] was 129% and the cell viability [17] was 92.7%. The cell viability [18] was 99%, the cell viability [19] was 91.3% and the cell viability [20] was 13%. For the same compound, the cell viability [21] was 18.9%, the cell viability [22] was 4.29% and the cell viability [23] was 112%. For the same compound, the cell viability [24] was 125%, the cell viability [25] was 122% and the cell viability [26] was 119%. The cell viability [27] was 140%, the cell viability [28] was 119% and the cell viability [29] was 111%. For the same compound, the cell viability [30] was 17.1%, the cell viability [31] was 11.8% and the cell viability [32] was 11.6%. For the same compound, the cell viability [33] was 3.18%.
CC(C)n1c(/C=C/[C@H](O)C[C@H](O)CC(=O)O)c(-c2ccc(F)cc2)c2ccccc21 was tested, and the cell viability [1] was 102%, the cell viability [2] was 99.3% and the cell viability [3] was 123%. For the same compound, the cell viability [4] was 107%, the cell viability [5] was 125% and the cell viability [6] was 129%. The cell viability [7] was 105%, the cell viability [8] was 99.2% and the cell viability [9] was 85%. It also gave a cell viability [10] of 83.4%, a cell viability [11] of 37.9% and a cell viability [12] of 103%. For the same compound, the cell viability [13] was 105%, the cell viability [14] was 126% and the cell viability [15] was 107%. The cell viability [16] was 116%, the cell viability [17] was 113% and the cell viability [18] was 106%. For the same compound, the cell viability [19] was 103%, the cell viability [20] was 95.5% and the cell viability [21] was 60.7%. For the same compound, the cell viability [22] was 19%, the cell viability [23] was 92.9% and the cell viability [24] was 90.7%. For the same compound, the cell viability [25] was 129%, the cell viability [26] was 112% and the cell viability [27] was 126%. It also gave a cell viability [28] of 129%, a cell viability [29] of 129% and a cell viability [30] of 116%. The cell viability [31] was 101%, the cell viability [32] was 83.8% and the cell viability [33] was 26.8%.
